# Where two headings read alike, the source gives them in different places.
# Key:
# [1] = target: T1, human GLP-1 receptor (hGLP-1R) (Homo sapiens, UniProt P43220); experiment: [125I]-GLP-1 binding, SPA with membranes of HEK293 cells expressing hGLP-1R
# T1 construct: expressed in transfected cells; crude membranes
# [2] = target: T2, hGCGR (Homo sapiens, UniProt P47871); experiment: Functional cAMP formation (HTRF) in HEK-293 clonal cells expressing hGCGR, 0.1% bovine casein, without or with 1.0% human serum albumin; assay type: cell-based
# T2 construct: expressed in transfected cells
# T2 sequence (P47871 26-477): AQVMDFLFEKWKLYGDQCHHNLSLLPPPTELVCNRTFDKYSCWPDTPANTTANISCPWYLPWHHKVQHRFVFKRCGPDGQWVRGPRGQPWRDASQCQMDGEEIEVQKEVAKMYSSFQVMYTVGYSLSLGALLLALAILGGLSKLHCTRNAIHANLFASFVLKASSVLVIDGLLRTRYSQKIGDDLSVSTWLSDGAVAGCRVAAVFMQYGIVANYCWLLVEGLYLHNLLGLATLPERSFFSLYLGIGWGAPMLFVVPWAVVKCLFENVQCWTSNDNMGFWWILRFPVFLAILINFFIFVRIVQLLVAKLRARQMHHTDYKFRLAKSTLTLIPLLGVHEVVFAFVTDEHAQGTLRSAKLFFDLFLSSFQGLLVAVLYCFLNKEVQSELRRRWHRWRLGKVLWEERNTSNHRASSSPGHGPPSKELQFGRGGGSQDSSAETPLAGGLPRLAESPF
# In short: (§1)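 Cells were stimulated with peptide for 30 min at 37° C, then intracellular cAMP was measured by competitive HTRF (665/620 nm ratio) and converted to nM using a cAMP standard curve. Relative EC50 and Emax came from four-parameter logistic fits of percent maximal response against peptide concentration.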
# [3] = target: hGLP-1R (Homo sapiens, UniProt P43220); experiment: Functional cAMP formation (HTRF) in HEK-293 clonal cells expressing hGLP-1R, 0.1% bovine casein, without or with 1.0% human serum albumin; assay type: cell-based; design: expressed in transfected cells; details: for Emax: percent of maximal response to GLP-1(7-36)NH2; for EC50: cAMP
# Sequence of hGLP-1R (P43220 24-463): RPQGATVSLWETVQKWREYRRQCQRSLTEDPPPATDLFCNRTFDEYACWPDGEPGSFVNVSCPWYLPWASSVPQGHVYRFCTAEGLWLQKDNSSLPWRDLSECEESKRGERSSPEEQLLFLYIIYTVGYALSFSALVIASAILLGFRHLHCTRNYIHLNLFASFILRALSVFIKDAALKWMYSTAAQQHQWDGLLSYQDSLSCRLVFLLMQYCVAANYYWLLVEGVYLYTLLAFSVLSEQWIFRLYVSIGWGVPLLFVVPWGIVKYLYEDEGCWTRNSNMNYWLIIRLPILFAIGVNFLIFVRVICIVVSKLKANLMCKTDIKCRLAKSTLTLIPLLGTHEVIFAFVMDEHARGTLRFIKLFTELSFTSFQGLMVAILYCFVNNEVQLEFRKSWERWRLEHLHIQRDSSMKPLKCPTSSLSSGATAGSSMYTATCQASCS
# In short: as §1
# [4] = target: T3, hGIPR (Homo sapiens, UniProt P48546); experiment: Functional cAMP formation (HTRF) in HEK-293 clonal cells expressing hGIPR, 0.1% bovine casein, without or with 1.0% human serum albumin; assay type: cell-based; details: for Emax: read-out: hGIPR Emax, % ± SEM; for EC50: geometric mean
# T3 construct: expressed in transfected cells
# T3 sequence (P48546 22-466): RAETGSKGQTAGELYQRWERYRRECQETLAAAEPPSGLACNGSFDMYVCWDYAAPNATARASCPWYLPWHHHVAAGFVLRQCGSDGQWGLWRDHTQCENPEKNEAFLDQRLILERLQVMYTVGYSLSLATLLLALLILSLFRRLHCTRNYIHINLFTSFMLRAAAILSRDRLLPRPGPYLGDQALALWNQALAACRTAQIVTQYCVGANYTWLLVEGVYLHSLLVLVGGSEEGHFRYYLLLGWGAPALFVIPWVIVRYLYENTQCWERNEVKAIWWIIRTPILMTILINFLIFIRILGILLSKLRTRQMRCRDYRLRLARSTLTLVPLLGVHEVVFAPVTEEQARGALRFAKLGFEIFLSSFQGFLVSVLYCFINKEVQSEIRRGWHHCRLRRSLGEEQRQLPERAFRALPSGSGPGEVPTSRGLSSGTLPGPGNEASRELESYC
# In short: as §1
# [5] = target: T4, human GIP receptor (hGIPR) (Homo sapiens, UniProt P48546); experiment: [125I]-GIP binding, SPA with membranes of CHO cells expressing hGIPR
# T4 construct: expressed in transfected cells; crude membranes
# T4 sequence (P48546 22-466): T3 sequence (P48546 22-466)
# [6] = human GLP-1R, geometric mean (SEM, n), read-out: Binding Affinity Ki, nM (SEM, n) hGLP-1R
# [7] = cAMP, 37° C., 0.1% bovine casein (no human serum albumin), geometric mean, read-out: hGCGR EC50, nM (SEM, n)
# [8] = cAMP, 37° C., 0.1% bovine casein and 1.0% human serum albumin, geometric mean (SEM, n), read-out: hGCGR EC50, nM (SEM, n)
# [9] = 37° C., 0.1% bovine casein (no human serum albumin), geometric mean, read-out: hGLP-1R EC50, nM (SEM, n)
# [10] = HEK293, cAMP, 37° C., 0.1% bovine casein and 1.0% human serum albumin, percent of maximal response to GIP(1-42)NH2
# [11] = cAMP, 37° C., 0.1% bovine casein (no human serum albumin), read-out: hGIPR EC50, nM (SEM, n)
# [12] = human GIPR, geometric mean (SEM, n), read-out: Binding Affinity Ki, nM (SEM, n) hGIPR
# T1 sequence (P43220 24-463): as the sequence (P43220 24-463) above
Compound,"Ki [1, 6] [nM]","EC50 [2, 7] [nM]","EC50 [2, 8] [nM]","EC50 [3, 9] [nM]","Emax [4, 10] [%]","EC50 [4, 11] [nM]","Ki [5, 12] [nM]",also measured
CCCCCCCCCCCC(=O)N[C@@H](CCC(=O)NCCOCCOCC(=O)NCCOCCOCC(=O)NCCOCCOCC(=O)NCCCC[C@H](NC(=O)[C@H](CO)NC(=O)[C@@H]1CCCN1C(=O)[C@@H]1CCCN1C(=O)[C@@H]1CCCN1C(=O)[C@H](C)NC(=O)CNC(=O)[C@H](CO)NC(=O)[C@H](CO)NC(=O)[C@@H]1CCCN1C(=O)CNC(=O)CNC(=O)[C@H](CCC(=O)O)NC(=O)[C@@H](NC(=O)[C@H](CC(C)C)NC(=O)[C@](C)(Cc1ccc(O)cc1)NC(=O)[C@@H](CCC(=O)O)NC(=O)[C@@H](NC(=O)[C@H](Cc1ccccc1)NC(=O)[C@H](CCC(=O)O)NC(=O)C(C)(C)NC(=O)[C@H](CCC(N)=O)NC(=O)[C@H](C)NC(=O)[C@H](CCCCNC(=O)COCCOCCNC(=O)COCCOCCNC(=O)COCCOCCNC(=O)CC[C@H](NC(=O)CCCCCCCCCCC)C(=O)O)NC(=O)[C@H](CCCN)NC(=O)[C@H](CC(=O)O)NC(=O)[C@H](CC(C)C)NC(=O)[C@](C)(CC(C)C)NC(=O)[C@@H](NC(=O)C(C)(C)NC(=O)[C@H](Cc1ccncc1)NC(=O)[C@H](CC(=O)O)NC(=O)[C@H](CO)NC(=O)[C@@H](NC(=O)[C@](C)(Cc1ccccc1F)NC(=O)[C@@H](NC(=O)CNC(=O)[C@H](CCC(=O)O)NC(=O)C(C)(C)NC(=O)[C@@H](N)Cc1ccc(O)cc1)[C@@H](C)O)[C@@H](C)O)[C@@H](C)CC)[C@@H](C)CC)[C@@H](C)CC)C(N)=O)C(=O)O [Example 424],0.219,> 9950,> 9950,0.0427,89.5,0.00502,0.0206,"Emax ([3]; HEK293, cAMP, 37° C., 0.1% bovine casein and 1.0% human serum albumin, read-out: hGLP-1R Emax, % ± SEM): 98.1%; EC50 ([3]; 37° C., 0.1% bovine casein and 1.0% human serum albumin, geometric mean (SEM, n), read-out: hGLP-1R EC50, nM (SEM, n)): 3.07 nM"
CC[C@H](C)[C@H](NC(=O)[C@H](CC(C)C)NC(=O)[C@](C)(Cc1ccc(O)cc1)NC(=O)[C@H](CCCCNC(=O)CCOCCOCCOCCNC(=O)CC[C@H](NC(=O)CCCCCCCCCOc1ccc(C(=O)O)cc1)C(=O)O)NC(=O)[C@@H](NC(=O)[C@H](Cc1ccccc1)NC(=O)[C@H](CCCN)NC(=O)C(C)(C)NC(=O)[C@H](CCC(N)=O)NC(=O)[C@H](C)NC(=O)[C@H](CCC(N)=O)NC(=O)[C@H](CCCN)NC(=O)[C@H](CC(=O)O)NC(=O)[C@H](CC(C)C)NC(=O)[C@](C)(CC(C)C)NC(=O)[C@@H](NC(=O)C(C)(C)NC(=O)[C@H](Cc1ccncc1)NC(=O)[C@H](CC(=O)O)NC(=O)[C@H](CO)NC(=O)[C@@H](NC(=O)[C@](C)(Cc1ccccc1F)NC(=O)[C@@H](NC(=O)CNC(=O)[C@H](CCC(=O)O)NC(=O)C(C)(C)NC(=O)[C@@H](N)Cc1ccc(O)cc1)[C@@H](C)O)[C@@H](C)O)[C@@H](C)CC)[C@@H](C)CC)C(=O)N[C@@H](CCCCNC(=O)CCOCCOCCOCCNC(=O)CC[C@H](NC(=O)CCCCCCCCCOc1ccc(C(=O)O)cc1)C(=O)O)C(=O)NCC(=O)NCC(=O)N1CCC[C@H]1C(=O)N[C@@H](CO)C(=O)N[C@@H](CO)C(=O)NCC(=O)N[C@@H](C)C(=O)N1CCC[C@H]1C(=O)N1CCC[C@H]1C(=O)N1CCC[C@H]1C(=O)N[C@@H](CO)C(N)=O [Example 462],–,–,–,–,–,–,–,"Ki [1]: 0.125 nM; EC50 ([2]; hGCGR EC50, nM (SEM, n), cAMP, 37° C., 0.1% bovine casein (no human serum albumin), geometric mean): > 9950 nM; EC50 ([2]; hGCGR EC50, nM (SEM, n), cAMP, 37° C., 0.1% bovine casein and 1.0% human serum albumin, geometric mean (SEM, n)): > 9950 nM; Emax ([3]; HEK293, read-out: hGLP-1R Emax, % ± SEM, cAMP, 37° C., 0.1% bovine casein, arithmetic mean): 113%; EC50 ([3]; hGLP-1R EC50, nM (SEM, n), 37° C., 0.1% bovine casein (no human serum albumin), geometric mean): 0.189 nM; EC50 ([4]; hGIPR EC50, nM (SEM, n), cAMP, 37° C., 0.1% bovine casein (no human serum albumin)): 0.0128 nM; Ki [5]: 0.0102 nM"
CCCCCCCCCCCC(=O)N[C@@H](CCC(=O)NCCOCCOCC(=O)NCCOCCOCC(=O)NCCCC[C@H](NC(=O)[C@H](CCCN)NC(=O)[C@H](CC(=O)O)NC(=O)[C@H](CC(C)C)NC(=O)[C@](C)(CC(C)C)NC(=O)[C@@H](NC(=O)C(C)(C)NC(=O)[C@H](CCCCNC(=O)COCCOCCNC(=O)COCCOCCNC(=O)CC[C@H](NC(=O)CCCCCCCCCCC)C(=O)O)NC(=O)[C@H](CC(=O)O)NC(=O)[C@H](CO)NC(=O)[C@@H](NC(=O)[C@](C)(Cc1ccccc1F)NC(=O)[C@@H](NC(=O)CNC(=O)[C@H](CCC(=O)O)NC(=O)C(C)(C)NC(=O)[C@@H](N)Cc1ccc(O)cc1)[C@@H](C)O)[C@@H](C)O)[C@@H](C)CC)C(=O)N[C@@H](C)C(=O)N[C@@H](CCC(N)=O)C(=O)NC(C)(C)C(=O)N[C@@H](Cc1ccncc1)C(=O)N[C@@H](Cc1ccccc1)C(=O)N[C@H](C(=O)N[C@H](CCC(=O)O)C(=O)N[C@@](C)(Cc1ccc(O)cc1)C(=O)N[C@@H](CC(C)C)C(=O)N[C@H](C(=O)N[C@@H](CCC(=O)O)C(=O)NCC(=O)NCC(=O)N1CCC[C@H]1C(=O)N[C@@H](CO)C(=O)N[C@@H](CO)C(=O)NCC(=O)N[C@@H](C)C(=O)N1CCC[C@H]1C(=O)N1CCC[C@H]1C(=O)N1CCC[C@H]1C(=O)N[C@@H](CO)C(N)=O)[C@@H](C)CC)[C@@H](C)CC)C(=O)O [Example 415],0.156,> 9950,> 9950,0.122,93.9,0.00991,0.0152,"Emax ([3]; HEK293, cAMP, 37° C., 0.1% bovine casein, arithmetic mean, read-out: hGLP-1R Emax, % ± SEM): 109%"
CC[C@H](C)[C@H](NC(=O)[C@H](CC(C)C)NC(=O)[C@](C)(Cc1ccc(O)cc1)NC(=O)[C@@H](CCC(=O)O)NC(=O)[C@@H](NC(=O)[C@H](Cc1ccccc1)NC(=O)[C@H](CCC(=O)O)NC(=O)C(C)(C)NC(=O)[C@H](CCC(N)=O)NC(=O)[C@H](C)NC(=O)[C@H](CCCCNC(=O)COCCOCCNC(=O)COCCOCCNC(=O)CC[C@H](NC(=O)CCCCCCCCCCCCC(=O)O)C(=O)O)NC(=O)[C@H](CCCN)NC(=O)[C@H](CC(=O)O)NC(=O)[C@H](CC(C)C)NC(=O)[C@](C)(CC(C)C)NC(=O)[C@@H](NC(=O)C(C)(C)NC(=O)[C@H](Cc1ccc(O)cc1)NC(=O)[C@H](CC(=O)O)NC(=O)[C@H](CO)NC(=O)[C@@H](NC(=O)[C@](C)(Cc1ccccc1F)NC(=O)[C@@H](NC(=O)CNC(=O)[C@H](CCC(=O)O)NC(=O)C(C)(C)NC(=O)[C@@H](N)Cc1ccc(O)cc1)[C@@H](C)O)[C@@H](C)O)[C@@H](C)CC)[C@@H](C)CC)C(=O)N[C@@H](CCC(=O)O)C(=O)NCC(=O)NCC(=O)N[C@@H](CCCCNC(=O)COCCOCCNC(=O)COCCOCCNC(=O)CC[C@H](NC(=O)CCCCCCCCCCCCC(=O)O)C(=O)O)C(=O)N[C@@H](CO)C(=O)N[C@@H](CO)C(=O)NCC(=O)N[C@@H](C)C(=O)N1CCC[C@H]1C(=O)N1CCC[C@H]1C(=O)N1CCC[C@H]1C(=O)N[C@@H](CO)C(N)=O [Example 50],0.876,–,–,–,–,–,0.0296,"EC50 ([2]; 0.1% bovine casein and 1.0% human serum albumin, 37° C., geometric mean, read-out: hGCGR EC50, nM (SEM, n)): > 9950 nM; EC50 ([2]; cAMP, incubated at 37° C., 0.1% bovine casein (no human serum albumin), geometric mean, read-out: hGCGR EC50, nM (SEM, n)): > 9950 nM; EC50 ([4]; 0.1% bovine casein and 1.0% human serum albumin, 37° C., read-out: hGIPR EC50, nM (SEM, n)): 1.81 nM; Emax ([4]; HEK293, 0.1% bovine casein and 1.0% human serum albumin, 37° C., percent of maximal response to GIP(1-42)NH2): 91.4 ± 4.2%; Emax ([4]; HEK293, percent of maximal response to GIP(1-42)NH2, 37° C., 0.1% bovine casein, arithmetic mean): 94.7 ± 1.77%; EC50 ([4]; cAMP, incubated at 37° C., 0.1% bovine casein (no human serum albumin), read-out: hGIPR EC50, nM (SEM, n)): 0.0168 nM"

# Source: patent US20230265151A1, “GIP/GLP1 CO-AGONIST COMPOUNDS” (priority 2020, published 2023)
